# According to paper PMC10663837 (iScience, 2023):
# How the values were obtained:
# [1] = system: progesterone receptor (PR) refolding by Hsp90 chaperone machine; assay: Progesterone receptor; type: biochemical, rabbit
# [2] = system: Hsp90β/p23; assay: Co-immunoprecipitation of purified Hsp90β with p23; type: binding, human; conditions: 40 μM EnnA or 5 μM 17-AAG, 5 mM ATP, 30 min 30°C
# [3] = system: Hsp90β/HOP; assay: Co-immunoprecipitation of purified Hsp90β with HOP; type: binding, human; conditions: 40 μM EnnA or 5 μM 17-AAG, 5 mM ATP, 30 min 30°C
# [4] = system: Hsp90 client proteins, Hsp70, Hsp40, Hsp27; assay: Western blot of Hsp90 client and heat shock proteins in cells; type: cell-based, human and murine
# [5] = system: 4T1 tumors; assay: Histology; type: in vivo, mouse
# [6] = system: 4T1 tumor-infiltrating CD8+ T cells; assay: Immunofluorescence of 4T1 tumor-infiltrating immune cells; type: in vivo, mouse; conditions: EnnA 10 mg/kg/48 h, 17-AAG 25 mg/kg/48 h
# [7] = system: MDA-MB-231 cells; assay: Flow cytometry of surface Hsp90, calreticulin, HMGB1, MDA-MB-231 cells; type: cell-based, human; conditions: 7.5 μM EnnA, 0.5 µM 17-AAG, 24h
# [8] = system: E0771 transcriptome; assay: Bulk RNA-seq of E0771 cells; type: cell-based, murine; conditions: ∼14%
# [9] = system: MEFs, MCF10A, E0771, Hs578T cells; assay: Cytotoxicity to normal versus cancer cells; type: cell-based, mouse and human; conditions: 24, 48, 72 h; EnnA 1.25-20 µM, 17AAG 0.15-5 µM; absorbance 490 nm
# [10] = system: cytokine/chemokine mRNA in E0771 cells; assay: RTqPCR of cytokines, chemokines and CX3CR1
# [11] = system: Hsp90β; conditions: cited from earlier work
# [12] = system: cancer cells; conditions: cited from earlier work
# [13] = system: E0771 tumors; assay: EnnA combined with CX3CR1 antagonist JMS-17-2, E0771 tumors; type: in vivo, mouse; conditions: JMS-17-2 10 mg/kg i.p. every 48 h alternating with EnnA 10 mg/kg
# [14] = system: lung breast cancer metastasis; conditions: cited from earlier work
# [15] = system: PD-L1 and PD-L2; conditions: Hsp90 N-terminal inhibitors; cited from earlier work
# [16] = system: cancer cells; conditions: cited from earlier work; remark: listed apart in the source
# [17] = system: patient-derived human melanoma cells; conditions: cited from earlier work
# [18] = system: Hsp90β; assay: Cellular thermal shift assay; type: cell-based, murine; conditions: E0771 cells, 20 μM, 90 mn
# [19] = target: Human Hsp90β, purified (human, UniProt P08238 1-724); assay: co-IP
# Chain of Human Hsp90β, purified (P08238 whole entry): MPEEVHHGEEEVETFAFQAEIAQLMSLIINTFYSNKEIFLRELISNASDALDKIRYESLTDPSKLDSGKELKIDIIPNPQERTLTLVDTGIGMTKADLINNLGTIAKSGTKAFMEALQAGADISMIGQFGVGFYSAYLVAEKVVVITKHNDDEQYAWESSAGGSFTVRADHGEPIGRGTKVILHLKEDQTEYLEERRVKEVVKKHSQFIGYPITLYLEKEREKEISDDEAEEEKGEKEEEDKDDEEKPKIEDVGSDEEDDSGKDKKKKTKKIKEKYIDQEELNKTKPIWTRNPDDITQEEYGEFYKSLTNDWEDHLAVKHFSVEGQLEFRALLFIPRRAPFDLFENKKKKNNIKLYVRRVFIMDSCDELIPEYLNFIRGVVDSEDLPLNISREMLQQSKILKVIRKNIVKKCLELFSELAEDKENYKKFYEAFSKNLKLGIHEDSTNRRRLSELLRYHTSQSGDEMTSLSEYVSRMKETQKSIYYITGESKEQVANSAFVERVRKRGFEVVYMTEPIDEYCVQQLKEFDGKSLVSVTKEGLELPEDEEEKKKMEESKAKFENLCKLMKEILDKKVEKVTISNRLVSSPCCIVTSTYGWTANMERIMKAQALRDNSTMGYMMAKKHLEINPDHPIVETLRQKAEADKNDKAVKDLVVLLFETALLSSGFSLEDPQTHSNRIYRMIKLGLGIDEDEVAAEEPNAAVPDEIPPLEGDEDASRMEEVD
molecule,measurement,setting,value
"C=CCNC1=C2C[C@@H](C)C[C@H](OC)[C@H](O)[C@@H](C)/C=C(\C)[C@H](OC(N)=O)[C@@H](OC)/C=C\C=C(/C)C(=O)NC(=CC1=O)C2=O [17-AAG, 17-N-allylamino-demethoxygeldanamycin]",accumulation of Hsp70-rich intermediate chaperoning complexes,"[1]; SDS-PAGE/Coomassie, 1 μM 17-AAG, 10 μM EnnA",accumulation of the intermediate chaperoning complexes rich with Hsp70 as observed with 17-AAG
same,effect on Hsp90β binding to p23,[2],"as with 17-AAG, EnnA disrupts Hsp90β binding to p23"
same,effect on Hsp90β binding to HOP,[3],"unlike 17-AAG, EnnA does not affect HOP binding to purified Hsp90β"
same,"heat shock response (mRNA and protein of Hsp70, Hsp40, Hsp27)",[4]; 0.5 μM 17-AAG,"upregulation of mRNA and protein levels of Hsp70, Hsp40, and Hsp27"
same,Hsp90 client protein level,"[4]; EnnA at EC50, 0.5 μM 17-AAG",induced Hsp90 client protein degradation
same,tumor necrosis,"[5]; 4T1, H&E, EnnA 10 mg/kg, 17-AAG 25 mg/kg",more necrotic than controls
same,immune-like cell infiltration of necrotic areas,[5]; 4T1 tumors,not as infiltrated as in the case of EnnA-treated animals
same,CD8+ T cell infiltration,[6],much less so in the 17-AAG-treated group
same,"surface exposure of Hsp90, calreticulin, HMGB1 vs 17-AAG",[7],not induced by 17-AAG
same,number of genes in common between EnnA and 17-AAG,[8],34 genes
same,discrimination between cancer and non-transformed cells,[9],does not discriminate between cancer and non-transformed immortalized cells in cell culture
same,IL10 mRNA,"[10]; E0771, RNA-seq and RTqPCR",decreased mRNA expression of anti-inflammatory cytokines such as IL10
same,"pro-inflammatory cytokines IL12b, TNFα, IL1β mRNA",[10]; RTqPCR,limited impact on these inflammatory cytokines
CC(C)=CCC[C@]1(C)C=Cc2c(O)c3c(c(CC=C(C)C)c2O1)O[C@]12C(=C[C@@H]4C[C@H]1C(C)(C)O[C@@]2(C/C=C(/C)C(=O)O)C4=O)C3=O [GBA],binding to Hsp90β middle domain,[11],binds selectively to the middle domain of Hsp90β
same,mode of cancer cell death,[12],GBA-induced cancer cell paraptosis
"Cl.O=c1c2cccn2c2ccccc2n1CCCN1CCC(c2ccc(Cl)cc2)CC1 [JMS-17-2, 5-[3-[4-(4-Chlorophenyl)-1-piperidinyl]propyl]pyrrolo[1,2-a]quinoxalin-4(5H)-one hydrochloride]",effect on EnnA antitumor efficacy,[13],significantly reduced the efficacy of EnnA
same,lung breast cancer metastasis,[14],reduce lung breast cancer metastasis
CCNC(=O)c1noc(-c2cc(C(C)C)c(O)cc2O)c1-c1ccc(CN2CCOCC2)cc1 [Luminespib],transcription and cell-surface expression of PD-L1 and PD-L2,[15],significant decrease in the transcription and cancer cell-surface expression of immune checkpoint ligands PD-L1 and PD-L2
CC(C)NCCCn1c(Sc2cc3c(cc2I)OCO3)nc2c(N)ncnc21 [PU-H71],transcription and cell-surface expression of PD-L1 and PD-L2,[15],significant decrease in the transcription and cancer cell-surface expression of immune checkpoint ligands PD-L1 and PD-L2
CC1(C)CC(=O)c2c(C(F)(F)F)nn(-c3ccc(C(N)=O)c(N[C@H]4CC[C@H](OC(=O)CN)CC4)c3)c2C1 [SNX-5422],transcription and cell-surface expression of PD-L1 and PD-L2,[15],significant decrease in the transcription and cancer cell-surface expression of immune checkpoint ligands PD-L1 and PD-L2
CC(C)C[C@H](NC(=O)[C@H](Cc1ccccc1)NC(=O)c1cnccn1)B(O)O [bortezomib],Hsp90 exposure at cell surface,[16],expose Hsp90 at the cell surface
CC(C)c1cc(-c2n[nH]c(=O)n2-c2ccc3c(ccn3C)c2)c(O)cc1O [ganetespib],transcription and cell-surface expression of PD-L1 and PD-L2,[15],significant decrease in the transcription and cancer cell-surface expression of immune checkpoint ligands PD-L1 and PD-L2
same,T-cell-mediated killing of melanoma cells,[17]; autologous T cells in vitro,enhances T-cell-mediated killing of patient-derived human melanoma cells
same,effect on anti-CTLA4 and anti-PD-1 therapy,[17]; in vivo,potentiates responses to anti-CTLA4 and anti-PD-1 therapy in vivo
COC1=C2C[C@@H](C)C[C@H](OC)[C@H](O)[C@@H](C)/C=C(\C)[C@H](OC(N)=O)[C@@H](OC)/C=C\C=C(/C)C(=O)NC(=CC1=O)C2=O [geldanamycin],transcription and cell-surface expression of PD-L1 and PD-L2,[15],significant decrease in the transcription and cancer cell-surface expression of immune checkpoint ligands PD-L1 and PD-L2
Enniatin B [AD96],inhibition of PR refolding,"[1]; RRL, Figures S1A–S1C, 10 µM drug in screen",did not inhibit the PR refolding
same,CETSA stabilization of Hsp90,[18],did not stabilize Hsp90
"Human p23, purified (natural protein, UniProt Q15185 1-160, looked up) MQPASAKWYDRRDYVFIEFCVEDSKDVNVNFEKSKLTFSCLGGSDNFKHLNEIDLFHCIDPNDSKHKRTDRSILCCLRKGESGQSWPRLTKERAKLNWLSVDFNNWKDWEDDSDEDMSNFDRFSEMMNNMGGDEDVDLPEVDGADDDSQDSDDEKMPDLE",binding result,[19],binds
